Results on 13 molecules are retold here after US9290487B2, “Pharmaceutical composition for treating diabetes” (Ajinomoto Co., Inc., priority 2011, dated 2016).

Usually EC50 stands for the midpoint of the concentration-response curve. Read a high EC50 as lower potency in that assay.

The target of one experiment is PPAR-α (Homo sapiens (Human), UniProt Q07869). In words: Measurement of PPAR-α activity (GAL4 luciferase reporter assay in CV-1 cells). Format: cell-based. The note with it: 100(A/B), B = compound in WO/2011/058154 at 100 μM, test concentrations not stated for these examples, read-out: PPARα relative fold induction (%). Here is the method: The PPAR-α activity was measured according to the published article (THE JOURNAL OF BIOLOGICAL CHEMISTRY Vol. 270, No. 22, 12953-12956, 1995).
Plasmids used for the PPAR-α activity measurement were constructed as follows. A luciferase expression plasmid (UASx5-TK-Luc) used was obtained by introducing a sequence, in which five yeast GAL4-binding sequences are linked in tandem, upstream of a thymidine kinase promoter of pTAL-Luc (Takara Bio Inc., 6252-1). A PPAR-α receptor expression plasmid (hGR-GAL4-hPPARα) used was obtained by introducing a human GR N-terminal region (1-76 aa), a yeast GAL4 DNA-binding region (1-147 aa), and a PPARα ligand-binding region (167-468 aa) between a Not I site and a Sal I site of pExchange-1 Core Vector (Invitrogen Corporation, 211176).
A reporter assay was conducted by the following method using Cercopithecus aethiops kidney-derived CV-1 cells. The CV-1 cells were seeded in a 96-well plate (Thermo Fisher Scientific Inc., 4938) at 2×10^4 cells/well using a 10% FBS-containing DMEM (Nacalai Tesque, Inc., 0845874) medium. After culturing under conditions of 37° C. and 5% CO2 for 2 hours, the plasmids were transfected. Lipofectamine LTX (Invitrogen Corporation, 15338-100) was used for the transfection according to the attached manual. The plasmid solution was prepared by adding a mixture solution of the luciferase expression plasmid and the PPAR-α receptor expression plasmid to OPTI-MEM I (Invitrogen Corporation, 11058-021). After the transfection was conducted, the test compound was added, and cultured at 37° C. in the presence of 5% CO2 for 18 to 20 hours. After the culturing was completed, the luciferase activity was measured with Luminescensor JNR (ATTO) using Bright-Glo (Promega Corporation, E2620).
The fold induction of PPAR-α by the test compounds was calculated by the following method. For the compounds of Examples 1, 4, 5, 7, and 9, PPAR-α relative fold induction (%) was defined as 100 (A/B), where A represents the maximum value of PPAR-α activities with the test compound at 0.3 μM, 1 μM, 3 μM, 10 μM, 30 μM, and 100 μM, and B represents the PPAR-α activity with the compound in WO/2011/058154 at 100 μM. For the compounds of Examples 11, 15, 19, 22, 26, and 32, PPAR-α relative fold induction (%) was defined as 100 (A/B), where A represents the maximum value of PPAR-α activities with the test compound at 3 μM, 10 μM, 30 μM, and 100 μM, and B represents the PPAR-α activity with the compound in WO/2011/058154 at 100 μM.
For orientation: A reporter such as luciferase makes a cellular process visible.

Experiment [1] deals with human GYS1 (glycogen synthase) (Homo sapiens (Human), UniProt P13807). In words: Measurement of glycogen synthase activity (coupled pyruvate kinase/lactate dehydrogenase assay, absorbance at 340 nm). The experiment is classed as biochemical. The conditions noted are these: concentration inducing relative activity of 50% (100% = Ex. 1 of WO/2011/058154 at 10 μM); incubation at 37° C. for 20 minutes (Examples 11 to 75). A digest of the protocol:
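GYS1 expressed in HEK293T cells, with the lysate pellet used as enzyme. Reaction with glucose-6-phosphate, glycogen, UDP-glucose, PEP and NADH, pH 7.3, incubated 30° C for 25 min or 37° C for 20 min, then A340 read. EC50 relative to a reference activator at 10 μM set as 100%.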

Sequence of PPAR-α (Q07869 167-468): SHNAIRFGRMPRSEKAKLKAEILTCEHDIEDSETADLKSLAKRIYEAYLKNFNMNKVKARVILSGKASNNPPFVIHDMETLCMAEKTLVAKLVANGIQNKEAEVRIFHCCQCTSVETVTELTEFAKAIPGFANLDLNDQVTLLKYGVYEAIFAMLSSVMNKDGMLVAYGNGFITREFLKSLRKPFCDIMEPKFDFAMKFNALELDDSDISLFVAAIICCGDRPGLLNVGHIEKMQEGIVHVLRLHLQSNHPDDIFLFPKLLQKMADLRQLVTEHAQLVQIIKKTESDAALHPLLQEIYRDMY
Sequence of human GYS1 (glycogen synthase) (P13807 whole entry): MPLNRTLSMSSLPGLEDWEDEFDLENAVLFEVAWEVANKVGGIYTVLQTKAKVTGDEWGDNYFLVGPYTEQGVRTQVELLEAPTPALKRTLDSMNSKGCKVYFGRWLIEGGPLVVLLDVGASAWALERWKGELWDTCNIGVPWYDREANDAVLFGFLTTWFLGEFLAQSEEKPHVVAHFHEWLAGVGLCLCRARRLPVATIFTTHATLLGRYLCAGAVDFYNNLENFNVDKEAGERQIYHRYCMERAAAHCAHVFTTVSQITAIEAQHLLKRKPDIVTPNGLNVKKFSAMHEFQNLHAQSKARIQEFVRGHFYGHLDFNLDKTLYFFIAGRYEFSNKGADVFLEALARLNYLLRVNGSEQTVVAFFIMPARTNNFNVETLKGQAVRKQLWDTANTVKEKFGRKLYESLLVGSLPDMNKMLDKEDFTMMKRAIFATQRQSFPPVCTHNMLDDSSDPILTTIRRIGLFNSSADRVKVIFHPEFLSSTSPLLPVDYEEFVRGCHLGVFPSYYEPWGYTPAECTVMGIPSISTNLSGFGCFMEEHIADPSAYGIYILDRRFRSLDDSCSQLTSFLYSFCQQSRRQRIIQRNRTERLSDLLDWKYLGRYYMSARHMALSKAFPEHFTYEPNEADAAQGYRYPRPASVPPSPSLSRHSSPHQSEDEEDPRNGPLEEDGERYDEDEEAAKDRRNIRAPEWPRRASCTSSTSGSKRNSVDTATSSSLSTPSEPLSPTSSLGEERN

Regarding `CC(O)COc1cc(-c2ccc(OCc3cccc(C(=O)N4CCC[C@H]4C(=O)O)c3)cc2)cc(F)c1F` (stereo partly drawn) [compound of Ex. 50, 1-[3-({[3′,4′-difluoro-5′-(2-hydroxypropoxy)biphenyl-4-yl]oxy}methyl)benzoyl]-L-proline], the Emax on PPAR-α turned out to be 15%. For the same molecule, the 50% effective concentration (EC50) in experiment [1] came out at 410 nM.
For the molecule `CC(=O)CSc1cc(F)c(F)cc1-c1ccc(OCc2cccc(C(=O)N3CCC[C@H]3C(=O)O)c2)cc1` [compound of Ex. 51, 1-{3-[({4′,5′-difluoro-2′-[(2-oxopropyl)thio]biphenyl-4-yl}oxy)methyl]benzoyl}-L-proline], the Emax on PPAR-α was found to be 15%. In addition, a half-maximal effect in experiment [1] (EC50) was put at 83 nM.
`O=C(O)[C@@H]1CCCN1C(=O)c1cccc(COc2ccc(-c3cc(F)c(F)cc3/C=N/O)cc2)c1` [compound of Ex. 52, 1-{3-[({4′,5′-difluoro-2′-[(hydroxyimino)methyl]biphenyl-4-yl}oxy)methyl]benzoyl}-L-proline]: the Emax at PPAR-α came to 18%. For the same molecule, in experiment [1], a half-maximal response (EC50) required 61 nM.
`N#Cc1coc2c(-c3ccc(OCc4cccc(C(=O)N5CCC[C@H]5C(=O)O)c4)cc3)cc(F)c(F)c12` [compound of Ex. 53]: the Emax on PPAR-α is 15%. Also, in experiment [1], the EC50 stood at 610 nM.
On to `O=C(O)[C@@H]1CCCN1C(=O)c1cccc(COc2ccc(-c3cc(F)c(F)c4c(CO)coc34)cc2)c1` [compound of Ex. 56, 1-[3-({4-[4,5-difluoro-3-(hydroxymethyl)-1-benzofuran-7-yl]phenoxy}methyl)benzoyl]-L-proline], for which the Emax at PPAR-α stood at 6.4%. In addition, in experiment [1], it took 44 nM to reach a half-maximal effect (EC50).
Regarding `O=C(O)[C@@H]1CCCN1C(=O)c1cccc(COc2ccc(-c3cc(F)c(F)c4cc(/C=N/O)oc34)cc2)c1` [compound of Ex. 58, 1-{3-[(4-{4,5-difluoro-2-[(hydroxyimino)methyl]-1-benzofuran-7-yl}phenoxy)methyl]benzoyl}-L-proline], the Emax on PPAR-α is 19%. In addition, the concentration giving a half-maximal response (EC50) in experiment [1] stood at 45 nM.
With `N#CCc1cc(F)c(F)cc1-c1ccc(OCc2cccc(C(=O)N3CCC[C@H]3C(=O)O)c2)cc1` [compound of Ex. 61, 1-[3-({[2′-(cyanomethyl)-4′,5′-difluorobiphenyl-4-yl]oxy}methyl)benzoyl]-L-proline], on PPAR-α, the Emax was found to be 10%. In experiment [1], this molecule returned an EC50 of 790 nM.
Regarding `O=Cc1cc2c(F)c(F)cc(-c3ccc(OCc4cccc(C(=O)N5CCC[C@H]5C(=O)O)c4)cc3)c2s1` [compound of Ex. 65, 1-(3-{[4-(4,5-difluoro-2-formyl-1-benzothien-7-yl)phenoxy]methyl}benzoyl)-L-proline], at PPAR-α, the Emax was 11%. In addition, the 50% effective concentration (EC50) in experiment [1] came to 300 nM.
On to `O=C(O)[C@@H]1CCCN1C(=O)c1cccc(COc2ccc(-c3cc(F)c(F)c4cc(CO)sc34)cc2)c1` [compound of Ex. 66, 1-[3-({4-[4,5-difluoro-2-(hydroxymethyl)-1-benzothien-7-yl]phenoxy}methyl)benzoyl]-L-proline], for which the Emax at PPAR-α stood at 18%. The same molecule came in with a 50% effective concentration (EC50) in experiment [1] of 74 nM.
For `O=C(O)[C@@H]1CCCN1C(=O)c1cccc(COc2ccc(-c3cc(F)c(F)cc3SCCO)cc2)c1` [compound of Ex. 69, 1-{3-[({4′,5′-difluoro-2′-[(2-hydroxyethyl)thio]biphenyl-4-yl}oxy)methyl]benzoyl}-L-proline] the same measures were 8.6% and 130 nM.
In the case of `O=C(O)[C@@H]1CCCN1C(=O)c1cccc(COc2ccc(-c3cc(F)c(F)c4cc(CO)oc34)cc2)c1` [compound of Ex. 70, 1-[3-({4-[4,5-difluoro-2-(hydroxymethyl)-1-benzofuran-7-yl]phenoxy}methyl)benzoyl]-L-proline], at PPAR-α, the Emax is 7.9%. In experiment [1], the concentration for a half-maximal effect (EC50) worked out at 200 nM.
On to `N#CCSc1cc(F)c(F)cc1-c1ccc(OCc2cccc(C(=O)N3CCC[C@H]3C(=O)O)c2)cc1` [compound of Ex. 71, 1-{3-[({2′-[(cyanomethyl)thio]-4′,5′-difluorobiphenyl-4-yl}oxy)methyl]benzoyl}-L-proline], for which, on PPAR-α, the Emax is 8.6%. In experiment [1], this molecule registered a concentration giving a half-maximal response (EC50) of 38 nM.
As for `N#CCCSc1cc(F)c(F)cc1-c1ccc(OCc2cccc(C(=O)N3CCC[C@H]3C(=O)O)c2)cc1` [compound of Ex. 72, 1-{3-[({2′-[(2-cyanoethyl)thio]-4′,5′-difluorobiphenyl-4-yl}oxy)methyl]benzoyl}-L-proline], the Emax at PPAR-α came out at 15%. In addition, in experiment [1], the EC50 was 190 nM.
